From the supplement of paper PMC10307832 come the findings set out here.

Holding throughout (test): relative viability (nuclei count vs DMSO), 5 days (fraction); higher = more cells survive
Compound in assay [1]: CC(C)=CC[C@@H](O)C1=CC(=O)c2c(O)ccc(O)c2C1=O [Shikonin] + CS(=O)(=O)CCNCc1ccc(-c2ccc3ncnc(Nc4ccc(OCc5cccc(F)c5)c(Cl)c4)c3c2)o1 [Lapatinib] (partner 2 µM)
The method, boiled down: (§1)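 Lung cancer cell lines in 1536-well plates got either a single drug or a fixed anchor-drug dose together with five library-drug doses (not always all listed) in √10 steps, by pin tool, on the day after seeding. Nuclei were counted after 5 days, and relative viability is the treated-to-vehicle ratio of nuclei counts. Values are medians of duplicate plates.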

Compound in assay [2]: CC(C)=CC[C@@H](O)C1=CC(=O)c2c(O)ccc(O)c2C1=O [Shikonin] + COc1cc2c(Oc3ccc(NC(=O)C4(C(=O)Nc5ccc(F)cc5)CC4)cc3F)ccnc2cc1OCCCN1CCOCC1 [Foretinib] (partner 0.25 µM)
Put shortly:
as §1

Compound in assay [3]: CC(C)N(CCCNC(=O)Nc1ccc(C(C)(C)C)cc1)C[C@H]1O[C@@H](n2ccc3c(N)ncnc32)[C@H](O)[C@@H]1O + O=C(c1cc(Cc2n[nH]c(=O)c3ccccc23)ccc1F)N1CCN(C(=O)C2CC2)CC1 [Olaparib] (partner 8 µM)
Put shortly: as §1

Compound in assay [4]: CC(C)N(CCCNC(=O)Nc1ccc(C(C)(C)C)cc1)C[C@H]1O[C@@H](n2ccc3c(N)ncnc32)[C@H](O)[C@@H]1O + COc1cccc2cc(-c3nc([C@H]4CC[C@H](C(=O)O)CC4)n4ncnc(N)c34)[nH]c12 [OSI-027] (partner 0.5 µM)
The method, boiled down:
as §1

On to NCI-H322M, for which the relative viability in assay [1] (first compound 0.01 µM) stood at 0.582; in assay [1] (first compound 0.1 µM), 0.595; in assay [1] (first compound 0.3162 µM) it was 0.585; in assay [1] (first compound 1 µM), 0.566; in assay [2] (first compound 0.01 µM), 0.996; in assay [2] (first compound 0.1 µM), 1.37. Also, the relative viability worked out at 1.06 in assay [2] (first compound 0.3162 µM); 0.99 in assay [2] (first compound 1 µM); 0.741 in assay [3] (first compound 0.08 µM); 0.797 in assay [3] (first compound 0.253 µM); 0.72 in assay [3] (first compound 0.8 µM); 0.765 in assay [3] (first compound 2.53 µM). Besides, the relative viability was 0.625 in assay [3] (first compound 8 µM); 0.514 in assay [4] (first compound 0.08 µM); 0.618 in assay [4] (first compound 0.253 µM); 0.575 in assay [4] (first compound 0.8 µM); 0.693 in assay [4] (first compound 2.53 µM); 0.579 in assay [4] (first compound 8 µM).
For the cell line NCI-H358, the relative viability in assay [1] (first compound 0.01 µM) turned out to be 0.374; in assay [1] (first compound 0.1 µM), 0.53; in assay [1] (first compound 0.3162 µM), 0.412; in assay [1] (first compound 1 µM), 0.391; in assay [2] (first compound 0.01 µM) it was 0.651; in assay [2] (first compound 0.1 µM), 0.729. Further, the relative viability amounted to 0.707 in assay [2] (first compound 0.3162 µM); 0.604 in assay [2] (first compound 1 µM); 0.593 in assay [3] (first compound 0.08 µM); 0.605 in assay [3] (first compound 0.253 µM); 0.565 in assay [3] (first compound 0.8 µM); 0.562 in assay [3] (first compound 2.53 µM). Also, the relative viability amounted to 0.542 in assay [3] (first compound 8 µM); 0.75 in assay [4] (first compound 0.08 µM); 0.61 in assay [4] (first compound 0.253 µM); 0.724 in assay [4] (first compound 0.8 µM); 0.752 in assay [4] (first compound 2.53 µM); 0.714 in assay [4] (first compound 8 µM).
For the cell line NCI-H460, the relative viability stood at 1.32 in assay [1] (first compound 0.01 µM); 1.51 in assay [1] (first compound 0.1 µM); 0.951 in assay [1] (first compound 0.3162 µM); 1.12 in assay [1] (first compound 1 µM); 1.09 in assay [2] (first compound 0.01 µM); 0.797 in assay [2] (first compound 0.1 µM). Moreover, the relative viability in assay [2] (first compound 0.3162 µM) is 1.12; in assay [2] (first compound 1 µM), 0.994; in assay [3] (first compound 0.08 µM), 0.391; in assay [3] (first compound 0.253 µM) it was 0.433; in assay [3] (first compound 0.8 µM), 0.388; in assay [3] (first compound 2.53 µM) it was 0.33. In addition, the relative viability was determined as 0.345 in assay [3] (first compound 8 µM); 0.62 in assay [4] (first compound 0.08 µM); 0.551 in assay [4] (first compound 0.253 µM); 0.693 in assay [4] (first compound 0.8 µM); 0.564 in assay [4] (first compound 2.53 µM); 0.601 in assay [4] (first compound 8 µM).
For the cell line NCI-H520, the relative viability in assay [1] (first compound 0.1 µM) amounted to 0.813; in assay [1] (first compound 0.3162 µM), 0.884; in assay [1] (first compound 1 µM), 0.923; in assay [2] (first compound 0.01 µM) it was 0.801; in assay [2] (first compound 0.1 µM), 0.759; in assay [2] (first compound 0.3162 µM), 0.8. Besides, the relative viability in assay [2] (first compound 1 µM) came to 0.696; in assay [3] (first compound 0.08 µM), 0.303; in assay [3] (first compound 0.253 µM), 0.389; in assay [3] (first compound 0.8 µM), 0.356; in assay [3] (first compound 2.53 µM), 0.331; in assay [3] (first compound 8 µM), 0.333. Also, the relative viability worked out at 0.181 in assay [4] (first compound 0.08 µM); 0.248 in assay [4] (first compound 0.253 µM); 0.235 in assay [4] (first compound 0.8 µM); 0.348 in assay [4] (first compound 2.53 µM); 0.267 in assay [4] (first compound 8 µM).
Consider NCI-H596, for which the relative viability is 1.19 in assay [1] (first compound 0.01 µM); 1.02 in assay [1] (first compound 0.1 µM); 1.15 in assay [1] (first compound 0.3162 µM); 0.98 in assay [1] (first compound 1 µM); 0.868 in assay [2] (first compound 0.01 µM); 0.824 in assay [2] (first compound 0.1 µM). In addition, the relative viability in assay [2] (first compound 0.3162 µM) stood at 0.777; in assay [2] (first compound 1 µM) it was 0.941; in assay [3] (first compound 0.08 µM), 0.667; in assay [3] (first compound 0.253 µM), 0.67; in assay [3] (first compound 0.8 µM), 0.531; in assay [3] (first compound 2.53 µM) it was 0.704. The relative viability in assay [3] (first compound 8 µM) stood at 0.723; in assay [4] (first compound 0.08 µM), 0.672; in assay [4] (first compound 0.8 µM) it was 0.507; in assay [4] (first compound 2.53 µM), 0.829; in assay [4] (first compound 8 µM) it was 0.748.
Regarding NCI-H647, the relative viability is 1.16 in assay [1] (first compound 0.01 µM); 1.17 in assay [1] (first compound 0.1 µM); 1.35 in assay [1] (first compound 0.3162 µM); 0.88 in assay [1] (first compound 1 µM); 1.29 in assay [2] (first compound 0.01 µM); 1.46 in assay [2] (first compound 0.1 µM). Moreover, the relative viability is 1.51 in assay [2] (first compound 0.3162 µM); 1.31 in assay [2] (first compound 1 µM); 0.439 in assay [3] (first compound 0.08 µM); 0.507 in assay [3] (first compound 0.253 µM); 0.508 in assay [3] (first compound 0.8 µM); 0.587 in assay [3] (first compound 2.53 µM). The relative viability stood at 0.543 in assay [3] (first compound 8 µM); 0.511 in assay [4] (first compound 0.08 µM); 0.579 in assay [4] (first compound 0.253 µM); 0.742 in assay [4] (first compound 2.53 µM); 0.586 in assay [4] (first compound 8 µM).
Consider NCI-H650, for which the relative viability stood at 1.01 in assay [1] (first compound 0.01 µM); 0.947 in assay [1] (first compound 0.3162 µM); 1.16 in assay [1] (first compound 1 µM); 1.01 in assay [2] (first compound 0.01 µM); 0.999 in assay [2] (first compound 0.1 µM); 1.08 in assay [2] (first compound 0.3162 µM). In addition, the relative viability in assay [2] (first compound 1 µM) worked out at 1.01; in assay [3] (first compound 0.08 µM), 0.376; in assay [3] (first compound 0.253 µM) it was 0.468; in assay [3] (first compound 0.8 µM), 0.305; in assay [3] (first compound 2.53 µM), 0.32; in assay [3] (first compound 8 µM) it was 0.328. Also, the relative viability in assay [4] (first compound 0.08 µM) was found to be 0.485; in assay [4] (first compound 0.253 µM) it was 0.63; in assay [4] (first compound 0.8 µM), 0.602; in assay [4] (first compound 2.53 µM), 0.468; in assay [4] (first compound 8 µM), 0.504.
As to NCI-H661, the relative viability in assay [1] (first compound 0.01 µM) worked out at 0.575; in assay [1] (first compound 0.1 µM) it was 0.494; in assay [1] (first compound 0.3162 µM), 0.501; in assay [1] (first compound 1 µM), 0.594; in assay [2] (first compound 0.01 µM), 0.987; in assay [2] (first compound 0.1 µM) it was 1.08. Further, the relative viability in assay [2] (first compound 0.3162 µM) is 1.09; in assay [2] (first compound 1 µM), 0.976; in assay [3] (first compound 0.08 µM), 0.85; in assay [3] (first compound 0.253 µM) it was 0.758; in assay [3] (first compound 0.8 µM), 0.795; in assay [3] (first compound 2.53 µM), 0.786. Further, the relative viability is 0.729 in assay [3] (first compound 8 µM); 0.719 in assay [4] (first compound 0.08 µM); 0.775 in assay [4] (first compound 0.253 µM); 0.68 in assay [4] (first compound 0.8 µM); 0.714 in assay [4] (first compound 2.53 µM); 0.683 in assay [4] (first compound 8 µM).
